Key:
CDK4/cyclin D1 = CDK4/cyclin D1 (Homo sapiens (Human), UniProt P11802); experiment: CDK4 Caliper Mobility Shift assay; format: biochemical
Protocol: (§1) A Caliper Mobility Shift assay was used to determine the inhibitory activities of a compound against CDK4/cyclin D1 and CDK6/cyclin D1 in their respective kinase buffers (CDK4: 20 mM HEPES, pH 7.5, and 0.01% Triton X-100; CDK6: 50 mM HEPES, pH 7.5, and 0.0015% BRIJ-35). The CDK4/cyclin D1 and CDK6/cyclin D1 were obtained from PROQINASE and CARNA, respectively. A FAM-labeled peptide was obtained from GL.
(§2) The compound at predetermined concentrations was pre-incubated with CDK4/cyclin D1 or CDK6/cyclin D1 in a 384-well microplate at room temperature for 10 min. The FAM-labeled peptide and ATP were subsequently added to initiate the kinase reactions. The final enzyme concentrations were 15 nM for CDK4 and 7.5 nM for CDK6. The final ATP concentrations were […] for CDK4 and […] for CDK6. The microplate was allowed to incubate at 28° C. The kinase reactions were stopped by adding a stop buffer (100 mM HEPES, pH 7.5, 0.012% BRIJ-35, 0.2% Coating Reagent 3 (Caliper Life Sciences), and […]). Conversion data were recorded and utilized to calculate the percent inhibition values for each compound and an IC50 value was then determined. The results are summarized in Table 1, where the symbol “***” represents a value no greater than 200 nM, the symbol “**” represents a value greater than 200 nM but no greater than 500 nM, and the symbol “*” represents a value greater than 500 nM.

CDK6/cyclin D1 = CDK6/cyclin D1 (Homo sapiens (Human), UniProt Q00534); experiment: CDK6 Caliper Mobility Shift assay; format: biochemical
Chain of CDK6/cyclin D1 (Q00534 whole entry): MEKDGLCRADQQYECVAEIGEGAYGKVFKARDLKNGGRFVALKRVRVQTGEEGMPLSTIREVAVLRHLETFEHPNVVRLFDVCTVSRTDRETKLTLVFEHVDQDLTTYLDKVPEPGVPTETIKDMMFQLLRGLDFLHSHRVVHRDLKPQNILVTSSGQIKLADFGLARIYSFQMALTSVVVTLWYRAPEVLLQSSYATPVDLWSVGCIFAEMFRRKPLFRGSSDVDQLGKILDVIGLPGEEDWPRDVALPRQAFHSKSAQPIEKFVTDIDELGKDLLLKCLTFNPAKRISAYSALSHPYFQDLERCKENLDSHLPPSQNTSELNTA
Chain of CDK6/cyclin D1 (P24385 whole entry partner): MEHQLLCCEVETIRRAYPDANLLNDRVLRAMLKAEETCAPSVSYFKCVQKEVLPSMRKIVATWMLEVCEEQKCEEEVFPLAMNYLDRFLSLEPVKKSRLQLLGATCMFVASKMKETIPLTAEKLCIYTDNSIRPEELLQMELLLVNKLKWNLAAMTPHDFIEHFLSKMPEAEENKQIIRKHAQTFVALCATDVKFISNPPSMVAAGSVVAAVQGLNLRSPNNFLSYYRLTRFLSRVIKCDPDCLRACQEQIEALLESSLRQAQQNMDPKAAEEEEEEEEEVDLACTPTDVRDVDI
Protocol: as §1, §2

[1] = test system: MCF-7 human breast cancer cells; experiment: CELLTITER-GLO luminescent cell viability assay; format: cell-based; conditions: MCF7, 192 h, MCF-7 cells, 8 days, read-out: EC50 (Effect on Cell Viability)
Protocol: A CELLTITER-GLO luminescent cell viability assay was carried out using MCF-7 human breast cancer cells under the normal growth condition. The MCF-7 human breast cancer cells were grown at 37° C. in a 5% CO2 humidified incubator in EMEM, supplemented 10% FBS, 0.01 mg/mL bovine insulin. The cells were seeded at a 3,000 cells/well in a 96-well tissue culture plate. The cells were allowed to adhere overnight in the incubator. A compound (5 μL) in a medium at a predetermined concentration. After the cells was incubated at 37° C. for 8 days, a CELLTITER-GLO detection solution (100 μL) was added. The cells were mixed on an orbital shaker for 5 min and then incubated for additional 10 min. The plate was read with an ENVISION reader. The results are summarized in Table 2, where the symbol “+++” represents a value no greater than 1 μM, the symbol “++” represents a value greater than 1 μM but no greater than 10 μM, and the symbol “+” represents a value greater than 10 μM.

Chain of CDK4/cyclin D1 (P11802 whole entry): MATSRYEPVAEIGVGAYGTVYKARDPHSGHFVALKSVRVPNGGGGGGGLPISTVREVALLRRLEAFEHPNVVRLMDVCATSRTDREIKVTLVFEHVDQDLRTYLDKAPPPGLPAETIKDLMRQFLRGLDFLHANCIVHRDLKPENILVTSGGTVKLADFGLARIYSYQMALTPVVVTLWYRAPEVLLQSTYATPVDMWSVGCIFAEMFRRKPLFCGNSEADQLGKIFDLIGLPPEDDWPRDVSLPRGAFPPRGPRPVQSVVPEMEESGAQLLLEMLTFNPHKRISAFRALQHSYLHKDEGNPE
Chain of CDK4/cyclin D1 (P24385 whole entry partner): as the sequence (P24385 whole entry partner) above

IC50 (CDK4/cyclin D1) [nM] | IC50 (CDK6/cyclin D1) [nM] | EC50 [1] [nM] | SMILES
200 to 500 | 200 to 500 | 1000 to 10000 | CC(=O)c1c(C)c2cnc(Nc3ccc(N4CCN(S(=O)(=O)NC(=O)C5CCC5)CC4)cn3)nc2n(C2CCCC2)c1=O [Compound A41, N-((4-(6-((6-Acetyl-8-cyclopentyl-5-methyl-7-oxo-7,8-dihydropyrido[2,3-d]-pyrimidin-2-yl)amino)pyridin-3-yl)piperazin-1-yl)sulfonyl)cyclobutanecarboxamide]
> 500 | ≤ 200 | 1000 to 10000 | CC(=O)c1c(C)c2cnc(Nc3ccc(N4CCN(S(=O)(=O)NC(=O)OC5CCC5)CC4)cn3)nc2n(C2CCCC2)c1=O [Compound A23, Cyclobutyl ((4-(6-((6-acetyl-8-cyclopentyl-5-methyl-7-oxo-7,8-dihydropyrido[2,3-d]pyrimidin-2-yl)amino)pyridin-3-yl)piperazin-1-yl)sulfonyl)carbamate]
200 to 500 | 200 to 500 | > 10000 | CCCNS(=O)(=O)N1CCN(c2ccc(Nc3ncc4c(C)c(C(C)=O)c(=O)n(C5CCCC5)c4n3)nc2)CC1 [Compound A49, 4-(6-((6-Acetyl-8-cyclopentyl-5-methyl-7-oxo-7,8-dihydropyrido[2,3-d]-pyrimidin-2-yl)amino)pyridin-3-yl)-N-propylpiperazine-1-sulfonamide]
≤ 200 | ≤ 200 | 1000 to 10000 | CCNS(=O)(=O)N1CCN(c2ccc(Nc3ncc4c(C)c(C(C)=O)c(=O)n(C5CCCC5)c4n3)nc2)CC1 [Compound A47, 4-(6-((6-Acetyl-8-cyclopentyl-5-methyl-7-oxo-7,8-dihydropyrido[2,3-d]-pyrimidin-2-yl)amino)pyridin-3-yl)-N-ethylpiperazine-1-sulfonamide]
≤ 200 | ≤ 200 | – | CC(=O)c1c(C)c2cnc(Nc3ccc(N4CCN(S(=O)(=O)C(C)C)CC4)cn3)nc2n(C2CCCC2)c1=O [Compound C1, 6-acetyl-8-cyclopentyl-2-[[5-(4-isopropylsulfonylpiperazin-1-yl)-2-pyridyl]-amino]-5-methylpyrido[2,3-d]pyrimidin-7-one]
≤ 200 | ≤ 200 | – | CC(=O)c1c(C)c2cnc(Nc3ccc(N4CCN(S(=O)(=O)n5ccnc5N)CC4)cn3)nc2n(C2CCCC2)c1=O [Compound A57, 6-Acetyl-2-((5-(4-((2-amino-1H-imidazol-1-yl)sulfonyl)piperazin-1-yl)pyridin-2-yl)amino)-8-cyclopentyl-5-methylpyrido[2,3-d]pyrimidin-7(8H)-one]

The remaining lines, values behind:

SMILES | IC50 (CDK4/cyclin D1) [nM] | IC50 (CDK6/cyclin D1) [nM] | EC50 [1] [nM]
CC(=O)c1c(C)c2cnc(Nc3ccc(N4CCN(S(=O)(=O)NCCO)CC4)cn3)nc2n(C2CCCC2)c1=O [Compound A42, 4-(6-((6-Acetyl-8-cyclopentyl-5-methyl-7-oxo-7,8-dihydropyrido[2,3-d]-pyrimidin-2-yl)amino)pyridin-3-yl)-N-(2-hydroxyethyl)piperazine-1-sulfonamide] | ≤ 200 | ≤ 200 | 1000 to 10000
CC(=O)c1c(C)c2cnc(Nc3ccc(N4CCN(S(=O)(=O)N[C@H](C(=O)O)C(C)C)CC4)cn3)nc2n(C2CCCC2)c1=O [Compound A45, ((4-(6-((6-Acetyl-8-cyclopentyl-5-methyl-7-oxo-7,8-dihydropyrido[2,3-d]-pyrimidin-2-yl)amino)pyridin-3-yl)piperazin-1-yl)sulfonyl)-L-valine] | ≤ 200 | ≤ 200 | 1000 to 10000
CCCC(=O)NS(=O)(=O)N1CCN(c2ccc(Nc3ncc4c(C)c(C(C)=O)c(=O)n(C5CCCC5)c4n3)nc2)CC1 [Compound A37, N-((4-(6-((6-Acetyl-8-cyclopentyl-5-methyl-7-oxo-7,8-dihydropyrido[2,3-d]-pyrimidin-2-yl)amino)pyridin-3-yl)piperazin-1-yl)sulfonyl)butyramide] | 200 to 500 | 200 to 500 | 1000 to 10000
CC(=O)NS(=O)(=O)N1CCN(c2ccc(Nc3ncc4c(C)c(C(C)=O)c(=O)n(C5CCCC5)c4n3)nc2)CC1 [Compound A34, N-((4-(6-((6-Acetyl-8-cyclopentyl-5-methyl-7-oxo-7,8-dihydropyrido[2,3-d]-pyrimidin-2-yl)amino)pyridin-3-yl)piperazin-1-yl)sulfonyl)acetamide] | ≤ 200 | ≤ 200 | > 10000
CC(=O)c1c(C)c2cnc(Nc3ccc(N4CCN(S(N)(=O)=O)C[C@@H]4C)cn3)nc2n(C2CCCC2)c1=O [Compound A3, (S)-4-(6-((6-acetyl-8-cyclopentyl-5-methyl-7-oxo-7,8-dihydropyrido[2,3-d]-pyrimidin-2-yl)-amino)pyridin-3-yl)-3-methylpiperazine-1-sulfonamide] | ≤ 200 | ≤ 200 | 1000 to 10000
CC(=O)c1c(C)c2cnc(Nc3ccc(N4CCN(S(=O)(=O)NC(=O)OC(C)(C)C)CC4)cn3)nc2n(C2CCCC2)c1=O [Compound A4, tert-butyl ((4-(6-((6-acetyl-8-cyclopentyl-5-methyl-7-oxo-7,8-dihydropyrido[2,3-d]pyrimidin-2-yl)amino)pyridin-3-yl)piperazin-1-yl)sulfonyl)carbamate] | ≤ 200 | ≤ 200 | > 10000
CSCC[C@H](N)C(=O)NCCOC(=O)NS(=O)(=O)N1CCN(c2ccc(Nc3ncc4c(C)c(C(C)=O)c(=O)n(C5CCCC5)c4n3)nc2)CC1 [Compound A19, (S)-2-(2-Amino-4-(methylthio)butanamido)ethyl ((4-(6-((6-acetyl-8-cyclopentyl-5-methyl-7-oxo-7,8-dihydropyrido[2,3-d]pyrimidin-2-yl)amino)pyridin-3-yl)piperazin-1-yl)-sulfonyl)carbamate] | ≤ 200 | ≤ 200 | > 10000
CC(=O)c1c(C)c2cnc(Nc3ccc(N4CCN(S(=O)(=O)NC(=O)OC5CC5)CC4)cn3)nc2n(C2CCCC2)c1=O [Compound A24, Cyclopropyl ((4-(6-((6-acetyl-8-cyclopentyl-5-methyl-7-oxo-7,8-dihydropyrido[2,3-d]pyrimidin-2-yl)amino)pyridin-3-yl)piperazin-1-yl)sulfonyl)carbamate] | ≤ 200 | ≤ 200 | 1000 to 10000
CC(=O)c1c(C)c2cnc(Nc3ccc(N4CCN(S(=O)(=O)n5ccnc5)CC4)cn3)nc2n(C2CCCC2)c1=O [Compound A58, 2-((5-(4-((1H-Imidazol-1-yl)sulfonyl)piperazin-1-yl)pyridin-2-yl)amino)-6-acetyl-8-cyclopentyl-5-methylpyrido[2,3-d]pyrimidin-7(8H)-one] | – | – | ≤ 1000
COC(=O)NS(=O)(=O)N1CCN(c2ccc(Nc3ncc4c(C)c(C(C)=O)c(=O)n(C5CCCC5)c4n3)nc2)CC1 [Compound A26, Methyl ((4-(6-((6-acetyl-8-cyclopentyl-5-methyl-7-oxo-7,8-dihydropyrido[2,3-d]-pyrimidin-2-yl)amino)pyridin-3-yl)piperazin-1-yl)sulfonyl)carbamate] | ≤ 200 | ≤ 200 | 1000 to 10000
CC(=O)c1c(C)c2cnc(Nc3ccc(N4CCN(S(=O)(=O)NC(=O)OCCNC(=O)[C@H]5CCCN5)CC4)cn3)nc2n(C2CCCC2)c1=O [Compound A21, (R)-2-(Pyrrolidine-2-carboxamido)ethyl ((4-(6-((6-acetyl-8-cyclopentyl-5-methyl-7-oxo-7,8-dihydropyrido[2,3-d]pyrimidin-2-yl)amino)pyridin-3-yl)piperazin-1-yl)sulfonyl)-carbamate] | ≤ 200 | ≤ 200 | –
CC(=O)c1c(C)c2cnc(Nc3ccc(N4CCN(S(=O)(=O)NC(=O)OCCNC(=O)CN)CC4)cn3)nc2n(C2CCCC2)c1=O [Compound A20, 2-(2-Aminoacetamido)ethyl ((4-(6-((6-acetyl-8-cyclopentyl-5-methyl-7-oxo-7,8-dihydropyrido[2,3-d]pyrimidin-2-yl)amino)pyridin-3-yl)piperazin-1-yl)sulfonyl)carbamate] | ≤ 200 | ≤ 200 | –
CC(=O)c1c(C)c2cnc(Nc3ccc(N4CCN(S(=O)(=O)NC(=O)C5CC5)CC4)cn3)nc2n(C2CCCC2)c1=O [Compound A38, N-((4-(6-((6-Acetyl-8-cyclopentyl-5-methyl-7-oxo-7,8-dihydropyrido[2,3-d]-pyrimidin-2-yl)amino)pyridin-3-yl)piperazin-1-yl)sulfonyl)cyclopropanecarboxamide] | ≤ 200 | ≤ 200 | –
